Converted amounts (≈) assume the structure as drawn. Like-named read-outs stand apart in the source and are kept apart here. Each block holds one compound with its values, some of them ahead of it.
Experiments:
[1] = for precipitation upon dilution in rSIF (visual): 1:1 in rSIF; for initial zosuquidar solubility: supernatant, 37 °C
Caco-2 cell monolayers [2] = experiment: Bidirectional etoposide permeability across Caco-2 cell monolayers; type: in vitro ADME; settings: in the presence of more than 79 nM zosuquidar; Caco-2
[3] = as above; type: in vitro ADME; settings: human, Caco-2, pH 7.4
[4] = Etoposide solubility in ethanol-water mixtures; type: physicochemical; settings: 22 °C, thermodynamic from solid
[5] = Pharmacokinetic dose escalation study in rats; type: in vivo, Sprague Dawley rats; settings: for bioavailability: Etoposide Bioavailability; for Zosuquidar tmax: median [Q1;Q3]
[6] = ref Al-Ali et al., cited from earlier work; for oral bioavailability of etoposide: 2020
[7] = mdr1a(−/−) (P-gp) knockout rats; ref Al-Ali et al., 2018a; cited from earlier work
Caco-2 cell monolayers [8] = experiment: Lucifer yellow permeability; type: in vitro ADME
[9] = 10 mg/kg encequidar, oral; ref Smolinski et al., 2021; cited from earlier work
[10] = weak base; ref Drugbank, 2021; cited from earlier work
[11] = 20 mg/kg zosuquidar IV; ref Anderson et al., 2006; cited from earlier work
[12] = Zosuquidar recovery in the compartments of the Caco-2 Transwell system; type: in vitro ADME; settings: for zosuquidar left in solution / zosuquidar recovery: 120 min, mean ± SEM, n = 24; for zosuquidar left in solution: % of added
P-gp = experiment: In vitro-in vivo correlation of P-gp inhibition; settings: 180 μM intestinal concentration in vivo vs. 5–10 nM in Caco-2
[13] = etoposide 5 mg/kg IV, by an oral dose of 20 mg/kg zosuquidar (group B vs A)
[14] = group B: zosuquidar 20 mg/kg oral + etoposide 5 mg/kg IV, mean ± SEM, n = 6
[15] = group F: zosuquidar 0.63 mg/kg oral + etoposide 20 mg/kg oral, mean ± SEM, n = 6
[16] = group G: zosuquidar 2.0 mg/kg oral + etoposide 20 mg/kg oral, mean ± SEM, n = 6
[17] = group H: zosuquidar 6.3 mg/kg oral + etoposide 20 mg/kg oral, mean ± SEM, n = 6
[18] = group I: zosuquidar 20 mg/kg oral + etoposide 20 mg/kg oral, mean ± SEM, n = 6
[19] = group J: zosuquidar 63 mg/kg oral + etoposide 20 mg/kg oral, mean ± SEM, n = 6

precipitation upon dilution in rSIF (visual) ([1]; etoposide, any formulation): did not precipitate
decrease of etoposide B-A permeability (Caco-2 cell monolayers [2]): 5 fold
increase of etoposide A-B permeability (Caco-2 cell monolayers [2]): 4 fold
recovery at 120 min, 50 µM [3]: 95 to 117%
solubility at 24 h ([4]; absolute ethanol, organic solvent or mixture): 891 ± 8 µg/mL (≈ 1510 µM)
solubility at 24 h ([4]; ethanol-water mixture): 9230 ± 420 µg/mL (≈ 15700 µM)
solubility at 24 h ([4]; water): 92.4 ± 3.4 µg/mL (≈ 157 µM)
increase of etoposide AUC0-6h [5, 13]: 34%
increase of etoposide t½ [5, 13]: 37%
Etoposide Bioavailability ([5]; group D: etoposide 20 mg/kg oral, no zosuquidar, mean ± SEM, n = 6): 5%
AUC(0-t) ([5]; male, Sprague Dawley, rat, plasma, po, 20 mg/kg, Etoposide AUC0-6h, group I: etoposide 20 mg/kg oral + zosuquidar 20 mg/kg oral, mean ± SEM, n = 6): 3530 ± 460 ng·h/mL
bioavailability ([5]; male, Sprague Dawley, rat, plasma, po, 20 mg/kg, group D: etoposide 20 mg/kg oral, no zosuquidar, mean ± SEM, n = 6): 5.5 ± 0.9%
bioavailability ([5]; male, Sprague Dawley, rat, plasma, po, 20 mg/kg, group I: etoposide 20 mg/kg oral + zosuquidar 20 mg/kg oral, mean ± SEM, n = 6): 20.5 ± 2.7%
Compound: COc1cc([C@@H]2c3cc4c(cc3[C@@H](O[C@@H]3O[C@@H]5CO[C@@H](C)O[C@H]5[C@H](O)[C@H]3O)[C@H]3COC(=O)[C@H]23)OCO4)cc(OC)c1O [etoposide]
oral bioavailability of etoposide ([6]; 20 mg/kg etoposide oral + 20 mg/kg oral zosuquidar): 34.5%
absolute etoposide bioavailability ([6]; wild-type rats, 2018a): 27 ± 5%
oral bioavailability of etoposide ([6]; without zosuquidar): 4.0%
oral etoposide bioavailability [7]: 92%

lucifer yellow Papp (Caco-2 cell monolayers [8]; 100 μM lucifer yellow, Caco-2, not affected by zosuquidar): below 1.1 × 10^−6 cm/s
lucifer yellow recovery (Caco-2 cell monolayers [8]; Caco-2 permeability experiments): 82–110%
Compound: lucifer yellow

Compound: COc1cc2c(cc1OC)CN(CCc1ccc(-n3nnc(-c4cc(OC)c(OC)cc4NC(=O)c4cc(=O)c5ccccc5o4)n3)cc1)CC2 [encequidar]
encequidar Cmax [9]: 7.1 ng/mL
encequidar bioavailability [9]: 6.25%

Compound: O[C@@H](COc1cccc2ncccc12)CN1CCN([C@@H]2c3ccccc3[C@@H]3[C@H](c4ccccc42)C3(F)F)CC1 [zosuquidar]
precipitation upon dilution in rSIF (visual) ([1]; 2.0 and 6.3 mg/mL zosuquidar (groups B, I, J)): precipitation was observed
initial zosuquidar solubility ([1]; formulation B (2.0 mg/mL zosuquidar) diluted 1:1 in rSIF): 450 µg/mL
dose strength being in solution ([1]; formulation B diluted 1:1 in rSIF): 44%
initial zosuquidar solubility ([1]; formulation I (2.0 mg/mL zosuquidar) diluted 1:1 in rSIF): 520 µg/mL
dose strength being in solution ([1]; formulation I diluted 1:1 in rSIF): 52%
initial zosuquidar solubility ([1]; formulation J (6.3 mg/mL zosuquidar) diluted 1:1 in rSIF): 470 µg/mL
dose strength being in solution ([1]; formulation J diluted 1:1 in rSIF): 15%
precipitation upon dilution in rSIF (visual) ([1]; lower zosuquidar concentrations): remained clear
predicted pKa [10]: 7.6
zosuquidar plasma concentration ([5]; 2 h after a 5 mg/kg IV bolus): 0.13 µg/mL
Zosuquidar AUC0-6h [5, 14]: 94.2 ± 12.4 ng·h/mL
Zosuquidar Bioavailability [5, 14]: 2.81±0.37%
Zosuquidar Cmax [5, 14]: 23.7 ± 3.6 ng/mL
Zosuquidar t½ terminal [5, 14]: 2.88 ± 0.167 h
Zosuquidar tmax ([5]; group B: zosuquidar 20 mg/kg oral + etoposide 5 mg/kg IV, n = 6): 120[60;135] min
Zosuquidar AUC0-6h ([5]; group C: zosuquidar 5.0 mg/kg IV, mean ± SEM, n = 3): 830 ± 87 ng·h/mL
Zosuquidar CL ([5]; group C: zosuquidar 5.0 mg/kg IV, n = 3): 102 ± 12 mL/min/kg
Zosuquidar t½ terminal ([5]; group C: zosuquidar 5.0 mg/kg IV, two-compartment model, mean ± SEM, n = 3): 2.33 ± 0.4 h
Zosuquidar AUC0-6h [5, 15]: 4.45 ± 0.86 ng·h/mL
Zosuquidar Bioavailability [5, 15]: 4.21±0.81%
Zosuquidar Cmax [5, 15]: 1.34 ± 0.28 ng/mL
Zosuquidar t½ terminal [5, 15]: 1.37 ± 0.0917 h
Zosuquidar tmax ([5]; group F: zosuquidar 0.63 mg/kg oral + etoposide 20 mg/kg oral, n = 6): 120[101;120] min
Zosuquidar AUC0-6h [5, 16]: 8.67 ± 0.77 ng·h/mL
Zosuquidar Bioavailability [5, 16]: 2.58±0.23%
Zosuquidar Cmax [5, 16]: 2.10 ± 0.27 ng/mL
Zosuquidar t½ terminal [5, 16]: 3.62 ± 0.45 h
Zosuquidar tmax ([5]; group G: zosuquidar 2.0 mg/kg oral + etoposide 20 mg/kg oral, n = 6): 120[45;135] min
Zosuquidar AUC0-6h [5, 17]: 43.6 ± 5.4 ng·h/mL
Zosuquidar Bioavailability [5, 17]: 4.12±0.51%
Zosuquidar Cmax [5, 17]: 10.9 ± 1.2 ng/mL
Zosuquidar t½ terminal [5, 17]: 2.68 ± 0.217 h
Zosuquidar tmax ([5]; group H: zosuquidar 6.3 mg/kg oral + etoposide 20 mg/kg oral, n = 6): 90[45;120] min
Zosuquidar AUC0-6h [5, 18]: 118 ± 21 ng·h/mL
Zosuquidar Bioavailability [5, 18]: 3.52±0.62%
Zosuquidar Cmax [5, 18]: 31.3 ± 3.2 ng/mL
Zosuquidar t½ terminal [5, 18]: 3.23 ± 0.383 h
Zosuquidar AUC0-6h [5, 19]: 436 ± 91 ng·h/mL
Zosuquidar Bioavailability [5, 19]: 4.12±0.86%
Zosuquidar Cmax [5, 19]: 105 ± 21 ng/mL
Zosuquidar t½ terminal [5, 19]: 3.97 ± 0.233 h
Oral zosuquidar bioavailability ([5]; range over the oral zosuquidar doses, Sprague Dawley rats): 2.6–4.2%
tolerability of IV zosuquidar [11]: no reported issues
reduction of free zosuquidar concentration in the receiver compartments ([12]; apical and basolateral, after 30 min, data not shown): 60–72%
zosuquidar left in solution ([12]; apical compartment): 1.55 ± 0.06%
zosuquidar left in solution ([12]; basolateral compartment): 7.01 ± 0.37%
zosuquidar recovery ([12]; in the Caco-2 monolayer): 58.7 ± 5.0%
zosuquidar recovery ([12]; in the cell culture plate): 31.8 ± 11.3%
in vitro-in vivo discrepancy of zosuquidar P-gp inhibition (P-gp): at least four orders of magnitude
